# Assay results as given in patent US20150164895A1, “DETERMINING SENSITIVITY OF CELLS TO B-RAF INHIBITOR TREATMENT BY DETECTING KRAS MUTATION AND RTK EXPRESSION LEVELS” (GENENTECH, INC., priority 2009, published 2015).
# Several values for one entry are separate records, joined by “and”; a condition that tells them apart may be missing. Identical values can stand only once.
# Tests used:
# lung tumor xenografts = assay: Experiment H327: growth in lung tumor xenografts after dosing with B-RAF inhibitor; type: in vivo, mice; settings: for Absolute body weight / Relative body weight / Survival time: individual animal; for Relative tumor volume / Absolute tumor volume: (a*b*b)/2: individual tumor
# From the text: FIGS. 10-18 depict growth in lung tumor xenografts after dosing with GDC-0879.
# The data are shown below, and in FIGS. 10-14 for Experiment H331 and FIGS. 15-18 for Experiment H327.
# WT Raf isoforms = assay: Biochemical enzyme assay at physiological [ATP]
# From the text: FIG. 1 depicts Biochemical enzyme assay data.
# [1] = system: ERK1/2 phosphorylation in BRAF^V600E primary human xenograft tumors; assay: Pharmacodynamic ERK1/2 phosphorylation immunoblot in primary human xenograft tumors; type: in vivo, mice; settings: 100 mg/kg, 1 or 8 h following the last dose (days 21-24)
# Protocol: In time course pharmacodynamic studies, mice were treated with 100 mg/kg GDC-0879 and scarified at 1 or 8 h following the last dose (days 21-24). Immunoblots of phosphorylated and total ERK1/2 are shown. […] Total ERK1/2 expression was examined in all samples as a loading control.
# [2] = system: Venus-C-RAF / CFP-K-RAS in HEK293T cells; assay: C-RAF plasma membrane translocation, live cell confocal imaging; type: cell-based; parameters: dose or concentration left out as unconfirmed
# From the text: Aliquots of the membrane and cytosolic fractions were immunoblotted with the indicated antibodies. (B) HEK293T cells were transiently transfected with Venus-C-RAF (green), CFP-K-RAS (red) and mCherry-H2B (blue).
# [3] = system: phospho-MEK in B-RAF V600E mutant cell lines; assay: Phospho-MEK MSD assay, basal and EGF-stimulated; type: cell-based; settings: basal and EGF-stimulated (20 ng/ml EGF); compared with PLX4720
# Protocol: (A) Cells were treated with […] compound in serum free media for 1 hour. For stimulation 20 ng/ml EGF was added for 5 min before cells were lysed. Lysates were transferred to an MSD plate where phospho- and total MEK levels were measured. […] Cells were dosed with indicated inhibitors, either alone or in combination in the presence of 20 ng/ml EGF in the media.
# [4] = H327-2, LXFA 1041/9N4, 100 mg/kg/day po Days 0-20, study day 17, group median n 20
# [5] = H327-2, LXFA 1041/9N4, 100 mg/kg/day po Days 0-20, study day 17, listed as G-026887
# [6] = H327-2, LXFA 1041/9N4, 100 mg/kg/day po Days 0-20, study day 20, group median n 10
# [7] = H327-2, LXFA 1041/9N4, 100 mg/kg/day po Days 0-20, study day 20, group median n 20
# [8] = H327-2, LXFA 1041/9N4, 100 mg/kg/day po Days 0-20, study day 20, listed as G-026887
# [9] = H327-5, LXFA 1041/9N4, 100 mg/kg/day po Day 0, study day 0, group median n 6
# [10] = H327-5, LXFA 1041/9N4, 100 mg/kg/day po Day 0, study day 0, listed as G-026887
# [11] = H327-6, LXFA 1041/9N4, 100 mg/kg/day po Day 0, study day 0, group median n 3
# [12] = H327-6, LXFA 1041/9N4, 100 mg/kg/day po Day 0, study day 0, listed as G-026887
structure (smiles),measurement,setting,value
"OCCn1cc(-c2ccc3c(c2)CC/C3=N\O)c(-c2ccncc2)n1 [GDC-0879, 2-{4-[(1E)-1-(hydroxyimino)-2,3-dihydro-1H-inden-5-yl]-3-(pyridine-4-yl)-1H-pyrazol-1-yl}ethan-1-ol]","Relative body weight, Median","lung tumor xenografts; H327-2, LXFA 1041/9N4, 100 mg/kg/day po Days 0-20, study day 17, group median n 10",102.7%
same,"Absolute tumor volume: (a*b*b)/2, Median",lung tumor xenografts; [4],789.5 mm3
same,"Relative tumor volume, Median",lung tumor xenografts; [4],900.4%
same,Absolute body weight,lung tumor xenografts; [5],24.8 g and 30.3 g and 25.1 g and 25.0 g and 24.7 g and 26.2 g and 31.9 g and 31.1 g and 26.4 g and 22.7 g
same,Relative body weight,lung tumor xenografts; [5],97.6% and 105.9% and 102.4% and 102.0% and 102.9% and 104.4% and 107.0% and 98.7% and 105.6% and 96.2%
same,Relative tumor volume,lung tumor xenografts; [5],1372.2% and 1073.6% and 869.4% and 770.2% and 1242.1% and 1093.2% and 1915.9% and 1727.1% and 932.7% and 931.4% and 937.2% and 831.6% and 856.0% and 746.4%
same,"Absolute body weight, Median",lung tumor xenografts; [6],26.9 g
same,"Relative body weight, Median",lung tumor xenografts; [6],108.0%
same,"Absolute tumor volume: (a*b*b)/2, Median",lung tumor xenografts; [7],928.6 mm3
same,"Relative tumor volume, Median",lung tumor xenografts; [7],1023.2%
same,Absolute body weight,lung tumor xenografts; [8],25.4 g and 31.4 g and 25.8 g and 26.3 g and 26.1 g and 28.3 g and 33.2 g and 32.4 g and 27.4 g and 23.1 g
same,Relative body weight,lung tumor xenografts; [8],100.0% and 109.8% and 105.3% and 107.3% and 108.8% and 112.7% and 111.4% and 102.9% and 109.6% and 97.9%
same,Relative tumor volume,lung tumor xenografts; [8],1795.5% and 1109.8% and 1056.9% and 872.2% and 1346.4% and 1155.4% and 2275.4% and 1830.4% and 1070.4% and 1264.0% and 971.2% and 860.0% and 980.4% and 989.5%
same,Absolute tumor volume: (a*b*b)/2,"lung tumor xenografts; H327-2, LXFA 1041/9N4 Lung, adeno, 100 mg/kg/day po Days 0-20, study day 0, listed as G-026887, 100 mg/kg/day",47.6 mm3 and 100.9 mm3 and 90.8 mm3 (2×) and 111.6 mm3 and 68.8 mm3 and 57.6 mm3 and 62.5 mm3 and 84.7 mm3 and 50.6 mm3 and 210.8 mm3 and 117.2 mm3 and 139.4 mm3
same,Absolute tumor volume: (a*b*b)/2,"lung tumor xenografts; H327-2, LXFA 1041/9N4 Lung, adeno, 100 mg/kg/day po Days 0-20, study day 3, listed as G-026887, 100 mg/kg/day",92.3 mm3 and 210.8 mm3 and 140.4 mm3 and 209.5 mm3 and 139.3 mm3 and 90.8 mm3 and 68.8 mm3 and 145.4 mm3 and 117.0 mm3 and 98.3 mm3 and 292.8 mm3 and 201.6 mm3 and 249.4 mm3
same,Absolute tumor volume: (a*b*b)/2,"lung tumor xenografts; H327-2, LXFA 1041/9N4 Lung, adeno, 100 mg/kg/day po Days 0-20, study day 7, listed as G-026887, 100 mg/kg/day",215.1 mm3 and 332.8 mm3 and 272.8 mm3 and 291.2 mm3 and 258.8 mm3 and 147.9 mm3 and 212.5 mm3 and 294.4 mm3 and 197.0 mm3 and 126.0 mm3 and 470.6 mm3 and 344.4 mm3 and 392.9 mm3
same,Absolute tumor volume: (a*b*b)/2,"lung tumor xenografts; H327-2, LXFA 1041/9N4 Lung, adeno, 100 mg/kg/day po Days 0-20, study day 10, listed as G-026887, 100 mg/kg/day",279.3 mm3 and 491.9 mm3 and 461.7 mm3 and 420.1 mm3 and 284.6 mm3 and 237.2 mm3 and 326.4 mm3 and 510.3 mm3 and 274.4 mm3 and 173.2 mm3 and 701.8 mm3 and 451.3 mm3 and 546.2 mm3
same,Absolute tumor volume: (a*b*b)/2,"lung tumor xenografts; H327-2, LXFA 1041/9N4 Lung, adeno, 100 mg/kg/day po Days 0-20, study day 14, listed as G-026887, 100 mg/kg/day",458.8 mm3 and 819.3 mm3 and 538.6 mm3 and 575.5 mm3 and 510.9 mm3 and 401.6 mm3 and 672.9 mm3 and 1044.8 mm3 and 426.3 mm3 and 312.1 mm3 and 1321.4 mm3 and 613.8 mm3 and 1022.5 mm3
same,Absolute tumor volume: (a*b*b)/2,"lung tumor xenografts; H327-2, LXFA 1041/9N4 Lung, adeno, 100 mg/kg/day po Days 0-20, study day 17, listed as G-026887, 100 mg/kg/day",653.0 mm3 and 1083.4 mm3 and 789.0 mm3 and 859.6 mm3 and 853.9 mm3 and 629.7 mm3 and 1197.5 mm3 and 1567.4 mm3 and 790.0 mm3 and 471.5 mm3 and 1975.9 mm3 and 974.7 mm3 and 1193.5 mm3
same,Absolute tumor volume: (a*b*b)/2,"lung tumor xenografts; H327-2, LXFA 1041/9N4 Lung, adeno, 100 mg/kg/day po Days 0-20, study day 20, listed as G-026887, 100 mg/kg/day",854.4 mm3 and 1120.0 mm3 and 959.2 mm3 and 973.4 mm3 and 925.7 mm3 and 665.5 mm3 and 1422.1 mm3 and 1661.1 mm3 and 906.6 mm3 and 639.9 mm3 and 2047.5 mm3 and 1008.0 mm3 and 1366.9 mm3
same,Survival time,"lung tumor xenografts; H327-5, LXFA 1041/9N4, 100 mg/kg/day po Day 0",>0 days
same,"Absolute body weight, Median",lung tumor xenografts; [9],25.6 g
same,"Absolute tumor volume: (a*b*b)/2, Median",lung tumor xenografts; [9],248.1 mm3
same,"Relative body weight, Median",lung tumor xenografts; [9],100.0%
same,"Relative tumor volume, Median",lung tumor xenografts; [9],100.0%
same,Relative body weight,"lung tumor xenografts; H327-5, LXFA 1041/9N4, 100 mg/kg/day po Day 0, study day 0",100.0%
same,Absolute body weight,lung tumor xenografts; [10],26.3 g and 23.5 g and 24.9 g and 31.1 g and 20.8 g and 27.4 g
same,Absolute tumor volume: (a*b*b)/2,lung tumor xenografts; [10],256.0 mm3 and 219.0 mm3 and 423.2 mm3 and 441.1 mm3 and 166.5 mm3 and 240.1 mm3
same,Survival time,"lung tumor xenografts; H327-6, LXFA 1041/9N4, 100 mg/kg/day po Day 0",>0 days
same,"Absolute body weight, Median",lung tumor xenografts; [11],27.2 g
same,"Absolute tumor volume: (a*b*b)/2, Median",lung tumor xenografts; [11],267.7 mm3
same,Absolute body weight,lung tumor xenografts; [12],27.9 g and 27.2 g and 25.2 g
same,Absolute tumor volume: (a*b*b)/2,lung tumor xenografts; [12],409.1 mm3 and 250.5 mm3 and 267.7 mm3
same,potency in biochemical enzyme assay,WT Raf isoforms,maintains effective potency
same,ERK1/2 phosphorylation in tumors,[1],down-regulated ERK1/2 phosphorylation
same,Venus-tagged C-RAF membrane translocation,[2],co-localizes with CFP-KRAS on the plasma membrane
same,knocking down phospho-MEK levels,[3],more effective in knocking down phospho-MEK levels
